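Dose response: 5 concentrations. Exposure: 48 h. Format: 96-well plates. Endpoint: linear interpolation; highest concentration if not reached. At the GI50, growth is halved.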 The source made the active and inactive calls. Cut-off read from the data, not from the text of the source: active = GI50 up to about 1.1 µM and inactive = higher.
Assays:
Assay in all cases: inhibition of tumour cell growth, NCI panel, 48 h
KM-20L2 = test system: KM-20L2
SNB-78 = test system: SNB-78
RXF 631 = test system: RXF 631
DMS-273 = test system: DMS-273
DLD-1 = test system: DLD-1
DMS-114 = test system: DMS-114
LXFL 529 = test system: LXFL 529
XF498 = test system: XF498
HOP-18 = test system: HOP-18

Measured: GI50

Cc1cc(NC(=O)C2C3C=CC(O3)C2C(=O)O)no1 (centres undefined)
inactive: KM-20L2 13.7 µM | SNB-78 > 100 µM | RXF 631 80.5 µM | DMS-273 16.8 µM | DLD-1 24 µM | DMS-114 15.7 µM | LXFL 529 20.4 µM | XF498 > 100 µM | HOP-18 > 100 µM
